Like-named read-outs stand apart in the source and are kept apart here.
Columns and labels:
Type in all cases: cell-based, human
[1] = test system: LNCaP prostate cancer cells; experiment: Cell viability assay (PrestoBlue) on LNCaP cells; conditions: 72 h treatment, PrestoBlue, mean of three independent experiments ± SEM, read-out: LNCaP GI50
Method: The human prostate cancer cell line PC-3 (ATCC Cat# CRL-1435) was grown in Ham’s F12 (Biowest, Nuaillé, France) medium, while the human prostate cancer cell line LNCaP (ATCC Cat# CRL-1740) was grown in RPMI 1640 (Biowest, Nuaillé, France) medium. Both media were supplemented with 10% Fetal Bovine Serum (FBS, Gibco, Fisher Scientific Italia, Segrate, Italy), 2 mM glutamine, 100 U/mL penicillin, and 100 μg/mL streptomycin. PC-3 and LNCaP cells were maintained at 37 °C in a humidified 5% CO2 atmosphere.
PC-3 and LNCaP cells were seeded at a density of 4000 and 6000 cells/well into a 96-well plate, respectively, together with a calibration curve of known cell numbers. The following day, the cells were treated with the indicated test compounds at different concentrations starting at 75μM with 2-fold serial dilutions. Cell viability was evaluated after 72h by colorimetric MTT (PC-3) or PrestoBlue™ (LNCaP) cell viability reagents. A total of 0.5 mg/mL of thiazolyl blue tetrazolium bromide (MTT) (Sigma-Aldrich, St. Louis, MO, USA) in Ham’s F12 medium was added to the wells, and the plate was incubated at 37 °C for 2 h. Medium containing unconverted MTT was removed, and 100 μL of MTT solvent (4 mM HCl, 0.1% NP40, in isopropyl alcohol) was added to the wells in order to solubilize MTT crystals. After 15 min of incubation at room temperature, the absorbance values at 570 nm were obtained with a Multiskan FC Microplate Photometer (Thermo Fisher Scientific, Waltham, MA, USA). PrestoBlue reagent (#A13261, Thermo Fisher Scientific, Waltham, MA, USA) was added to the medium (1:10 v/v) and incubated for 1 h at 37 °C. Cell viability was calculated by quantifying PrestoBlue reduction by measuring the absorbance at 570 and 620 nm, according to the manufacturer’s protocol. The viability of untreated cells was arbitrarily set at 100%, and the concentration at which cellular growth is inhibited by 50% (GI50) was determined. Three independent experiments were performed.

[2] = test system: acetylated tubulin (Ac-Tub) in LNCaP cells; experiment: Western blot of acetylated α-Tubulin in LNCaP cells; conditions: 24 h at GI50 concentration, normalized with Tubulin
Method: (§1) To assess whether the observed antiproliferative activity of the selected compounds was a consequence of HDAC6-targeting, we examined the effect of the cell treatments on the expression levels of acetylated tubulin (Ac-Tub), a well-known HDAC6 target. LNCaP and PC-3 cells were treated with the tested compounds at their GI50 concentrations, and SDS-PAGE and western blot were performed. In addition, the acetylation levels of histone H3, which are mainly regulated by HDAC1, were also evaluated in order to exclude potential class I-HDAC off-target activities. We used Tubastatin-A and Geldanamycin as reference controls for cellular effects resulting from HDAC6- and Hsp90-inhibition, respectively. The results in Figure 2 show a significant increase in α-Tubulin acetylation in LNCaP cells after treatments with compounds 8, 11 and 18. Indeed, these compounds triggered a 2.9-, 5.1-, and 2.5-fold increase, respectively, compared to the control (DMSO). […].
Figure 2 Western blot analysis and relative quantification of the expression levels of acetylated-Tubulin (Ac-TUB), acetylated H3 (Ac-H3), and HSP70 in LNCaP (A,B) and PC-3 (C,D) cells treated for 24 h at GI50 concentration. Tubastatin-A was used as HDAC6-specific positive control, Geldanamycin (GELDA) as HSP90-specific positive control, and SAHA as pan-HDAC inhibitor. Protein expression was normalized with Tubulin levels (Ac-TUB and HSP70) or total H3 (Ac-H3). Quantification is reported as fold change in treated cells versus DMSO control (CTR), arbitrarily set at 1 (one sample t-test p-values: * p < 0.05, ** p < 0.01, *** p < 0.001, **** p < 0.0001; n = 3).
(§2) Cell treatment. PC-3 and LNCaP cells were grown in 12-well tissue-culture plates and treated with test compounds at the evaluated GI50 concentration for each candidate inhibitor for 24 h. DMSO was used as a negative control, while Tubastatin-A and Geldanamycin were used as positive controls for HDAC6 and Hsp90 inhibition, respectively. Vorinostat (SAHA) was used as a pan-HDACi control. […] Protein quantitation was performed with Pierce Detergent Compatible Bradford Assay (#23246, Thermo Fisher Scientific, MA, USA), and equivalent amounts of cellular extracts were resolved by SDS-PAGE, transferred to PVDF or Nitrocellulose membrane with Trans-Blot Turbo Transfer System (Bio-Rad, Hercules, CA, USA), and immunoblotted with the following primary antibodies, diluted 1:1000 in 1× TBS with 1 mg/mL BSA: Anti-Histone H3 (#PA5-16183, Invitrogen, Thermo Fisher Scientific, MA, USA), Anti-acetylated histone H3 (#sc-518011, Santa Cruz Biotechnology, Inc., Dallas, TX, USA), Anti-Tubulin (#E-AB-20073, Elabscience, Houston, TX, USA), Anti-acetylated α-tubulin (#sc-23950, Santa Cruz), and Anti-HSP70 (#4872S, Cell Signaling Technology, Inc., Danvers, MA, USA). […]

[3] = test system: acetylated tubulin (Ac-Tub) in PC-3 cells; experiment: Western blot of acetylated α-Tubulin in PC-3 cells; conditions: 24 h at GI50 concentration, normalized with Tubulin
Method: as §1
Figure 2 Western blot analysis and relative quantification of the expression levels of acetylated-Tubulin (Ac-TUB), acetylated H3 (Ac-H3), and HSP70 in LNCaP (A,B) and PC-3 (C,D) cells treated for 24 h at GI50 concentration. […]
as §2, with “treatment.” for “treatment. PC-3 and LNCaP cells were grown in 12-well tissue-culture plates and treated with test compounds at the evaluated GI50 concentration for each candidate inhibitor for 24 h. DMSO was used as a negative control, while Tubastatin-A and Geldanamycin were used as positive controls for HDAC6 and Hsp90 inhibition, respectively. Vorinostat (SAHA) was used as a pan-HDACi control.”

| GI50 ([1]; Homo sapiens, LNCaP, 72 h) | α-Tubulin acetylation, fold induction versus DMSO control [3] | GI50 [1] | SMILES | α-Tubulin acetylation, fold increase compared to the control (DMSO) [2] |
| --- | --- | --- | --- | --- |
| > 75 µM | 4.9 fold |  | O=C(Nc1ncccc1O)c1ccc(-c2noc(C(F)(F)F)n2)cc1 [Compound 18] | 2.5 fold |
| ~50 µM | 7.3 fold | 51.6 ± 3.7 µM | O=C(c1cc(OCc2ccccc2)ccc1O)N1CCC(c2noc(C(F)(F)F)n2)CC1 [Compound 8] | 2.9 fold |
| 41.3 ± 8.7 µM | 5.5 fold |  | CC(C)[C@H](C(=O)NCc1ccc(C(=O)NO)cc1)N1Cc2ccccc2C1=O [Compound 11] | 5.1 fold |

Reference: publication PMC11357446, “Searching for Novel HDAC6/Hsp90 Dual Inhibitors with Anti-Prostate Cancer Activity: In Silico Screening and In Vitro Evaluation” (Pharmaceuticals, 2024)
